Results from patent publication US4426519A, “7-(2-Amino-4-thiazolyl)-acetamido cephalosporanic acids” (Roussel Uclaf, priority 1979, dated 1984).
Structures can show the parent of a compound that is named as a salt. Where two headings read alike, the source gives them in different places.

Experiments:
[1] = system: Proteus Morganii A236; experiment: Experimental infection of Proteus Morganii A236 in mice; type: in vivo; settings: for Mice surviving on 8th day: cutaneously 1,5 and 24 hours after injection, controls 0/10; for Mortality after hours: cutaneously, group of 10 mice
Procedure: The activity of the product of Example 1 against an experimental infection of Proteus Morganii […] was determined in groups of 10 mice weighing an average of 20.5 g which were infected by intraperitoneal injection of 0.5 ml of a culture thereof in a medium with a pH of 7 diluted to one tenth.

[2] = system: Klebsiella Pneumonia No. 52,145; experiment: Experimental infection of Klebsiella Pneumoniae in mice; type: in vivo; settings: for Mice surviving on 8th day: by injection 1,5 and 24 hours after infection, controls 0/10; for Mortality after hours: by injection, group of 10 mice
Procedure: The activity of the compound of Example 1 against an experimental infection of Klebsiella Pneumonia No. 52,145 was determined on groups of 10 mice having an average weight of 21 g by intraperitoneal injection of 0.5 ml of a culture thereof with a pH of 6 diluted to 1/1500.

[3] = system: Escherichia coli TO26 B6; experiment: Experimental infection with Escherichia coli TO26 B6 in mice; type: in vivo; settings: for No. of mice surviving 8th day: subcutaneous 1, 5 and 24 hours after infection, control 0/10; for Mortality after hours: subcutaneous, group of 10 mice
Procedure: The product of Example 1 was studied for its activity against an experimental infection of Escherichia coil in groups of 10 male mice weighing about 21.5 g. The mice received an intraperitoneal injection of 0.5 ml of a 24 hour old culture in a nutritive media of Escherichia Coli TO26 B6 of the Pasteur Institute diluted 1/5 with distilled water. The test product was administered subcutaneously 1 hour and 5 and 24 hours after the infection and the number of dead was determined after 8 days.

[4] = system: Proteus mirabilis A 235; experiment: Experimental infection of Proteus mirabilis in mice; type: in vivo; settings: for Mice surviving on 8th day: subcutaneous 1, 5 and 24 hours after infection, controls 0/10; for Mortality after hours: subcutaneous, group of 10 mice
Procedure: Groups of 10 mice with an average weight of 21.5 g received intraperitoneally 0.5 ml of a 24 hour old culture in oxoid bouillon of Proteus mirabilis A 235 diluted 1/10 with distilled water. The mice then received subcutaneously the compound of Example 1 one hour and 5 and 24 hours after the infection and the results are reported in the following Table.

[5] = system: Klebsiella pneumoniae 2 536 Resistant Gentamycine; experiment: MIC, dilution in liquid medium; type: cell-based
Procedure: (§1) The method used was a dilution of a liquid medium where a series of tubes received the same quantity of a sterile nutritive media and increasing doses of the test compounds were placed therein. Then each tube was seeded with a bacterial strain and was incubated for 24 to 48 hours at 37° C. in an oven. The increasing inhibition was determined by transillulumination to determine the minimum inhibiting concentration (MIC in μg/ml) and the results are reported in the following Tables.

[6] = system: Escherichia Coli Resistant Tetracycline ATCC 11 303; experiment: MIC, dilution in liquid medium; type: cell-based
Procedure: as §1

[7] = system: Enterobacter cloacae 681; experiment: MIC, dilution in liquid medium; type: cell-based
Procedure: as §1

[8] = system: Providencia Du 48; experiment: MIC, dilution in liquid medium; type: cell-based
Procedure: as §1

[9] = system: Bacillus subtilis ATCC 6 633; experiment: MIC, dilution in liquid medium; type: cell-based
Procedure: as §1

[10] = system: Staphylococcus aureus ATCC 6 538 Pen Sensitive; experiment: MIC, dilution in liquid medium; type: cell-based
Procedure: as §1

[11] = system: Escherichia Coli Resistant Gentamycine, Tobramycine R 55 123 D; experiment: MIC, dilution in liquid medium; type: cell-based; settings: read-out: MIC
Procedure: as §1

[12] = system: Staphylococcus aureus exp.n°54 146; experiment: MIC, dilution in liquid medium; type: cell-based
Procedure: as §1

[13] = system: Staphylococcus aureus UC 1 128 Pen-resistant; experiment: MIC, dilution in liquid medium; type: cell-based
Procedure: as §1

[14] = system: Pseudomonas 8951 Resistant Gentamycine Tetracycline; experiment: MIC, dilution in liquid medium; type: cell-based
Procedure: as §1

[15] = system: Serratia Resistant Gentamycine 2 532; experiment: MIC, dilution in liquid medium; type: cell-based; settings: read-out: MIC
Procedure: as §1

[16] = system: Streptococcus pyogenes A 561; experiment: MIC, dilution in liquid medium; type: cell-based
Procedure: as §1

[17] = system: Escherichia Coli sensitive Tetracycline ATCC 9 637; experiment: MIC, dilution in liquid medium; type: cell-based
Procedure: as §1

[18] = system: Proteus mirabilis (indol-) A 235; experiment: MIC, dilution in liquid medium; type: cell-based
Procedure: as §1

[19] = system: Salmonella typhimurium 420; experiment: MIC, dilution in liquid medium; type: cell-based; settings: Salmonella enterica, read-out: MIC
Procedure: as §1

[20] = system: Klebsiella pneumoniae Exp. 52 145; experiment: MIC, dilution in liquid medium; type: cell-based; settings: read-out: MIC
Procedure: as §1

## CC(=O)OCC1=C(C(=O)O)N2C(=O)C(NC(=O)/C(=N\OCCSC(=N)N)c3csc(N)n3)C2SC1 (stereo not drawn) [Example 1, Trifluoroacetate of the syn isomer of 3-acetoxymethyl-7-[2-(2-amino-4-thiazolyl)-2-(2-aminoiminomethylthio-ethoxyimino)acetamido]-ceph-3-eme-4-carboxylic acid]
[1]; dose 0,1 mg
  Mice surviving on 8th day: 10/10
[1]; dose 0,05 mg
  Mice surviving on 8th day: 2/10
[1]; dose 0,5 mg
  Mice surviving on 8th day: 10/10
[1]; dose 0,05 mg, 4H
  Mortality after hours: 1
[1]; dose 0,05 mg, 6H15
  Mortality after hours: 1
[1]; dose 0,05 mg, 6H
  Mortality after hours: 2
[1]; dose 0,05 mg, 21H10
  Mortality after hours: 3
[1]; dose 0,05 mg, 45H20
  Mortality after hours: 1
[1]; dose 0,25 mg
  Mice surviving on 8th day: 10/10
[2]; dose 0,1 mg
  Mice surviving on 8th day: 6/10
[2]; dose 0,1 mg, 4 J
  Mortality after hours: 1
[2]; dose 0,1 mg, 5 J
  Mortality after hours: 1
[2]; dose 0,1 mg, 6 J
  Mortality after hours: 1
[2]; dose 0,1 mg, 8 J
  Mortality after hours: 1
[2]; dose 0,5 mg
  Mice surviving on 8th day: 9/10
[2]; dose 0,5 mg, 6 J
  Mortality after hours: 1
[2]; dose 0,25 mg
  Mice surviving on 8th day: 8/10
[2]; dose 0,25 mg, 4 J
  Mortality after hours: 1
[2]; dose 0,25 mg, 6 J
  Mortality after hours: 1
[2]; dose 1 mg
  Mice surviving on 8th day: 10/10
[2]; dose 1,5 mg
  Mice surviving on 8th day: 10/10
[3]; dose 0.1 mg
  No. of mice surviving 8th day: 6/10
[3]; dose 0.1 mg, 21H30
  Mortality after hours: 1
[3]; dose 0.1 mg, 24 H
  Mortality after hours: 1
[3]; dose 0.1 mg, 28 H
  Mortality after hours: 1
[3]; dose 0.1 mg, 36 H
  Mortality after hours: 1
[3]; dose 0.25 mg
  No. of mice surviving 8th day: 10/10
[4]; dose 0,1 mg
  Mice surviving on 8th day: 10/10
[4]; dose 0,05 mg
  Mice surviving on 8th day: 10/10
[4]; dose 0,5 mg
  Mice surviving on 8th day: 10/10
[4]; dose 0,25 mg
  Mice surviving on 8th day: 10/10
[4]; dose 0,025 mg
  Mice surviving on 8th day: 7/10
[4]; dose 0,025 mg, 23H45
  Mortality after hours: 1
[4]; dose 0,025 mg, 25 H
  Mortality after hours: 1
[4]; dose 0,025 mg, 31 H
  Mortality after hours: 1
[5]; 24 h
  MIC: 1 µg/mL
[5]; 48 h
  MIC: 2 µg/mL
[6]; ATCC11, 24 h
  MIC: 0.05 µg/mL
[6]; ATCC11, 48 h
  MIC: 0.05 µg/mL
[7]; Enterobacter cloacae, 681, 24 h
  MIC: 2 µg/mL
[7]; Enterobacter cloacae, 681, 48 h
  MIC: 2 µg/mL
[8]; DU48, 24 h
  MIC: 2 µg/mL
[8]; DU48, 48 h
  MIC: 3 µg/mL
[9]; ATCC6, 24 h
  MIC: 1 µg/mL
[9]; ATCC6, 48 h
  MIC: 1 µg/mL
[10]; ATCC6, 24 h
  MIC: 2 µg/mL
[10]; ATCC6, 48 h
  MIC: 2 µg/mL
[11]; 24 h
  MIC: 0.5 µg/mL
[11]; 48 h
  MIC: 0.5 µg/mL
[12]; 24 h
  MIC: 2 µg/mL
[12]; 48 h
  MIC: 2 µg/mL
[13]; UC1, 24 h
  MIC: 2 µg/mL
[13]; UC1, 48 h
  MIC: 3 µg/mL
[14]; 24 h
  MIC: 20 µg/mL
[14]; 48 h
  MIC: 20 µg/mL
[15]; 24 h
  MIC: 0.5 µg/mL
[15]; 48 h
  MIC: 0.5 µg/mL
[16]; A561, 24 h
  MIC: 0.02 µg/mL
[16]; A561, 48 h
  MIC: 0.02 µg/mL
[17]; ATCC9, 24 h
  MIC: 1 µg/mL
[17]; ATCC9, 48 h
  MIC: 1 µg/mL
[18]; 24 h
  MIC: 0.1 µg/mL
[18]; 48 h
  MIC: 0.1 µg/mL
[19]; 24 h
  MIC: 0.5 µg/mL
[19]; 48 h
  MIC: 0.5 µg/mL
[20]; EXP.52145, 24 h
  MIC: 0.5 µg/mL
[20]; EXP.52145, 48 h
  MIC: 0.5 µg/mL
